SMILES strings stand for the structures. Counter-ions that a name gives are not always drawn.

For orientation: inhibition means the change of the read-out against control, counted positive when it falls.

The first assay deals with IL-5 production. The assay is described as follows: Test 3: inhibition of IL-5 production in human PBMC stimulated with ConA. Type of assay: cell-based. The settings on record: 10^-6 M, 10 μg/ml ConA, 48 hours, read-out: Inhibition rate of IL-5 production. The protocol: Test 3: Test on the inhibition of IL-5 production
The peripheral blood was collected from a normal volunteer and peripheral blood mononuclear cells (PBMC) of the human peripheral blood were separated therefrom by the specific gravity centrifugation method. They were suspended in an AIM-V medium and their cell count was adjusted. To individual wells of a 96-well incubation plate, 1×10^6 cells/ml of PBMC were poured, followed by the addition of a stimulator (10 μg/ml of ConA) and a medicament. The resulting mixture was incubated in 5% CO2 at 37° C. for 48 hours. After incubation, 50 μl of the supernatant were collected and subjected to measurement by a human IL-5 EIA kit (BIO SOURCE, INC.). The inhibition rate was calculated according to the following formula. [formula]
Take `COC(=O)CCCCCOc1cnc(/C=C/C(O)C2CCCC2)cc1OC` (stereo not drawn) [Ex. 31, Methyl 6-[2-(3-cyclopentyl-3-hydroxy-1-propenyl)-4-methoxy5-pyridyloxy]hexanoate]: the inhibition at 1 µM stood at 71.6%.
Same read-out and setting: to `COc1cnc(/C=C/C(=O)c2ccccc2)cc1OCCCC(=O)O` [Ex. 33, 4-[5-methoxy-2-(3-oxo-3-phenyl-1-propenyl)-4-pyridyloxy]butanoic acid] belongs 72.1%; to `CCCCCC(O)/C=C/c1cc(OCCCCCC(=O)O)c(OC)cn1` (stereo not drawn) [Ex. 35, 6-[2-(3-Hydroxy-1-octenyl)-5-methoxy-4-pyridyloxy]hexanoic acid], 82.2%; to `COc1cc(/C=C/C(O)C2CCCC2)ncc1OCCCCCC(=O)O` (stereo not drawn) [Ex. 36, 6-[2-(3-Cyclopentyl-3-hydroxy-1-propenyl)-4-methoxy-5-pyridyloxy]hexanoic acid hydrochloride], 86.5%.
Turning to `COc1cc(/C=C/C(=O)C2CCCC2)ncc1OCCCCCC(=O)O` [Ex. 38, 6-[2-(3-Cyclopentyl-3-oxo-1-propenyl)-4-methoxy-5-pyridyloxy]hexanoic acid hydrochloride], the inhibition at 1 µM turned out to be 88.7%.
Same read-out and setting: the result for `COc1cnc(/C=C/C(=O)c2ccccc2)cc1OC(=O)c1ccccc1` [Ex. 43, 4-benzoyloxy-5-methoxy-2-(3-oxo-3-phenyl-1-propenyl)pyridine] reads 61.4%; that for `CCOC(=O)COc1cc(/C=C/C(=O)c2ccccc2)ncc1OC` [Ex. 45], 64.3%.
For `CCCCOc1cc(/C=C/C(=O)c2ccccc2)ncc1OC` [Ex. 46, 4-Butoxy-5-methoxy-2-(3-oxo-3-phenyl-1-propenyl)pyridine], the inhibition at 1 µM turned out to be 86.9%.
The same measure, in the same setting: to `COc1cnc(/C=C/C(=O)c2ccccc2)cc1OCC(=O)c1ccccc1` [Ex. 47, 5-Methoxy-4-(2-oxo-2-phenylethoxy)-2-(3-oxo-3-phenyl-1-propenyl)pyridine] belongs 67.2%.

In the next assay the test system is IL-4 production. The assay is described as follows: Test 1: inhibition of IL-4 production in human T-cell strain ATL-16T(-) stimulated with PMA (R&D Systems EIA). It is filed as cell-based. To be noted: 10^-5 M, ATL-16T(-) 1×10^6 cells/0.5 ml/well, 20 nM PMA, 48 hours, read-out: Inhibition rate of IL-4 production. The procedure: Test 1: Test on the inhibition of IL-4 production
Into individual wells of a 48-well microplate, the human T-cell strain ATL-16T(-) was poured at a concentration of 1×10^6 cells/0.5 ml/well (n=3), followed by the addition of a stimulator (20 nM of PMA) and a medicament at the same time. The resulting mixture was incubated in 5% CO2 at 37° C. for 48 hours. After incubation, 100 μl of the supernatant were collected and subjected to measurement by a human IL-4 EIA kit (R&D SYSTEMS, INC.). The inhibition rate was calculated according to the following formula. [formula]
`COC(=O)CCCCCOc1cnc(/C=C/C(O)C2CCCC2)cc1OC` (stereo not drawn) [Ex. 31, Methyl 6-[2-(3-cyclopentyl-3-hydroxy-1-propenyl)-4-methoxy5-pyridyloxy]hexanoate]: the inhibition at 10 µM turned out to be 81.2%.
Regarding `COc1cnc(/C=C/C(=O)c2ccccc2)cc1OCCCC(=O)O` [Ex. 33, 4-[5-methoxy-2-(3-oxo-3-phenyl-1-propenyl)-4-pyridyloxy]butanoic acid], the inhibition at 10 µM stood at 107%.
Regarding `CCCCCC(O)/C=C/c1cc(OCCCCCC(=O)O)c(OC)cn1` (stereo not drawn) [Ex. 35, 6-[2-(3-Hydroxy-1-octenyl)-5-methoxy-4-pyridyloxy]hexanoic acid], the inhibition at 10 µM stood at 90.3%.
As for `COc1cc(/C=C/C(O)C2CCCC2)ncc1OCCCCCC(=O)O` (stereo not drawn) [Ex. 36, 6-[2-(3-Cyclopentyl-3-hydroxy-1-propenyl)-4-methoxy-5-pyridyloxy]hexanoic acid hydrochloride], the inhibition at 10 µM was 85.1%.
On the same count and under the same terms, to `COc1cc(/C=C/C(=O)C2CCCC2)ncc1OCCCCCC(=O)O` [Ex. 38, 6-[2-(3-Cyclopentyl-3-oxo-1-propenyl)-4-methoxy-5-pyridyloxy]hexanoic acid hydrochloride] belongs 76.3%.
Same read-out and setting: the result for `COc1cnc(/C=C/C(=O)c2ccccc2)cc1OC(=O)c1ccccc1` [Ex. 43, 4-benzoyloxy-5-methoxy-2-(3-oxo-3-phenyl-1-propenyl)pyridine] reads 80.8%.
On the same count and under the same terms, to `CCOC(=O)COc1cc(/C=C/C(=O)c2ccccc2)ncc1OC` [Ex. 45] belongs 89.5%.
Consider `CCCCOc1cc(/C=C/C(=O)c2ccccc2)ncc1OC` [Ex. 46, 4-Butoxy-5-methoxy-2-(3-oxo-3-phenyl-1-propenyl)pyridine], for which the inhibition at 10 µM worked out at 76.6%.
Consider `COc1cnc(/C=C/C(=O)c2ccccc2)cc1OCC(=O)c1ccccc1` [Ex. 47, 5-Methoxy-4-(2-oxo-2-phenylethoxy)-2-(3-oxo-3-phenyl-1-propenyl)pyridine], for which the inhibition at 10 µM was 113%.

The assay is the same for the next values; noted with them: 10^-6 M, ATL-16T(-) 1×10^6 cells/0.5 ml/well, 20 nM PMA, 48 hours, read-out: Inhibition rate of IL-4 production.
`COC(=O)CCCCCOc1cnc(/C=C/C(O)C2CCCC2)cc1OC` (stereo not drawn) [Ex. 31, Methyl 6-[2-(3-cyclopentyl-3-hydroxy-1-propenyl)-4-methoxy5-pyridyloxy]hexanoate]: the inhibition at 1 µM was 69.5%.
With `COc1cnc(/C=C/C(=O)c2ccccc2)cc1OCCCC(=O)O` [Ex. 33, 4-[5-methoxy-2-(3-oxo-3-phenyl-1-propenyl)-4-pyridyloxy]butanoic acid], the inhibition at 1 µM stood at 93.9%.
Same read-out and setting: to `CCCCCC(O)/C=C/c1cc(OCCCCCC(=O)O)c(OC)cn1` (stereo not drawn) [Ex. 35, 6-[2-(3-Hydroxy-1-octenyl)-5-methoxy-4-pyridyloxy]hexanoic acid] belongs 89.3%; to `COc1cc(/C=C/C(O)C2CCCC2)ncc1OCCCCCC(=O)O` (stereo not drawn) [Ex. 36, 6-[2-(3-Cyclopentyl-3-hydroxy-1-propenyl)-4-methoxy-5-pyridyloxy]hexanoic acid hydrochloride], 78.9%; to `COc1cc(/C=C/C(=O)C2CCCC2)ncc1OCCCCCC(=O)O` [Ex. 38, 6-[2-(3-Cyclopentyl-3-oxo-1-propenyl)-4-methoxy-5-pyridyloxy]hexanoic acid hydrochloride], 68.9%.
`COc1cnc(/C=C/C(=O)c2ccccc2)cc1OC(=O)c1ccccc1` [Ex. 43, 4-benzoyloxy-5-methoxy-2-(3-oxo-3-phenyl-1-propenyl)pyridine]: the inhibition at 1 µM came out at 72.6%.
Consider `CCOC(=O)COc1cc(/C=C/C(=O)c2ccccc2)ncc1OC` [Ex. 45], for which the inhibition at 1 µM came to 86.4%.
Regarding `CCCCOc1cc(/C=C/C(=O)c2ccccc2)ncc1OC` [Ex. 46, 4-Butoxy-5-methoxy-2-(3-oxo-3-phenyl-1-propenyl)pyridine], the inhibition at 1 µM was found to be 69.1%.
Regarding `COc1cnc(/C=C/C(=O)c2ccccc2)cc1OCC(=O)c1ccccc1` [Ex. 47, 5-Methoxy-4-(2-oxo-2-phenylethoxy)-2-(3-oxo-3-phenyl-1-propenyl)pyridine], the inhibition at 1 µM was 89.6%.

Still in this assay, the particulars now being: 10^-7 M, ATL-16T(-) 1×10^6 cells/0.5 ml/well, 20 nM PMA, 48 hours, read-out: Inhibition rate of IL-4 production.
Regarding `COC(=O)CCCCCOc1cnc(/C=C/C(O)C2CCCC2)cc1OC` (stereo not drawn) [Ex. 31, Methyl 6-[2-(3-cyclopentyl-3-hydroxy-1-propenyl)-4-methoxy5-pyridyloxy]hexanoate], the inhibition at 0.1 µM was 58%.
Still for that read-out and setting: to `COc1cnc(/C=C/C(=O)c2ccccc2)cc1OCCCC(=O)O` [Ex. 33, 4-[5-methoxy-2-(3-oxo-3-phenyl-1-propenyl)-4-pyridyloxy]butanoic acid] belongs 90%; to `CCCCCC(O)/C=C/c1cc(OCCCCCC(=O)O)c(OC)cn1` (stereo not drawn) [Ex. 35, 6-[2-(3-Hydroxy-1-octenyl)-5-methoxy-4-pyridyloxy]hexanoic acid], 82.5%; to `COc1cc(/C=C/C(O)C2CCCC2)ncc1OCCCCCC(=O)O` (stereo not drawn) [Ex. 36, 6-[2-(3-Cyclopentyl-3-hydroxy-1-propenyl)-4-methoxy-5-pyridyloxy]hexanoic acid hydrochloride], 68.6%.
Take `COc1cc(/C=C/C(=O)C2CCCC2)ncc1OCCCCCC(=O)O` [Ex. 38, 6-[2-(3-Cyclopentyl-3-oxo-1-propenyl)-4-methoxy-5-pyridyloxy]hexanoic acid hydrochloride]: the inhibition at 0.1 µM amounted to 59%.
Consider `COc1cnc(/C=C/C(=O)c2ccccc2)cc1OC(=O)c1ccccc1` [Ex. 43, 4-benzoyloxy-5-methoxy-2-(3-oxo-3-phenyl-1-propenyl)pyridine], for which the inhibition at 0.1 µM amounted to 70.3%.
`CCOC(=O)COc1cc(/C=C/C(=O)c2ccccc2)ncc1OC` [Ex. 45]: the inhibition at 0.1 µM came out at 80.1%.
On the same count and under the same terms, to `CCCCOc1cc(/C=C/C(=O)c2ccccc2)ncc1OC` [Ex. 46, 4-Butoxy-5-methoxy-2-(3-oxo-3-phenyl-1-propenyl)pyridine] belongs 33.8%; to `COc1cnc(/C=C/C(=O)c2ccccc2)cc1OCC(=O)c1ccccc1` [Ex. 47, 5-Methoxy-4-(2-oxo-2-phenylethoxy)-2-(3-oxo-3-phenyl-1-propenyl)pyridine], 74.1%.

The same assay, now with this note: 10^-8 M, ATL-16T(-) 1×10^6 cells/0.5 ml/well, 20 nM PMA, 48 hours, read-out: Inhibition rate of IL-4 production.
For the molecule `COC(=O)CCCCCOc1cnc(/C=C/C(O)C2CCCC2)cc1OC` (stereo not drawn) [Ex. 31, Methyl 6-[2-(3-cyclopentyl-3-hydroxy-1-propenyl)-4-methoxy5-pyridyloxy]hexanoate], the inhibition at 0.01 µM was determined as 40.4%.
The same measure, in the same setting: to `COc1cnc(/C=C/C(=O)c2ccccc2)cc1OCCCC(=O)O` [Ex. 33, 4-[5-methoxy-2-(3-oxo-3-phenyl-1-propenyl)-4-pyridyloxy]butanoic acid] belongs 86.1%; to `CCCCCC(O)/C=C/c1cc(OCCCCCC(=O)O)c(OC)cn1` (stereo not drawn) [Ex. 35, 6-[2-(3-Hydroxy-1-octenyl)-5-methoxy-4-pyridyloxy]hexanoic acid], 64.3%.
For `COc1cc(/C=C/C(O)C2CCCC2)ncc1OCCCCCC(=O)O` (stereo not drawn) [Ex. 36, 6-[2-(3-Cyclopentyl-3-hydroxy-1-propenyl)-4-methoxy-5-pyridyloxy]hexanoic acid hydrochloride], the inhibition at 0.01 µM was 37.6%.
On to `COc1cc(/C=C/C(=O)C2CCCC2)ncc1OCCCCCC(=O)O` [Ex. 38, 6-[2-(3-Cyclopentyl-3-oxo-1-propenyl)-4-methoxy-5-pyridyloxy]hexanoic acid hydrochloride], for which the inhibition at 0.01 µM was 42.4%.
Consider `COc1cnc(/C=C/C(=O)c2ccccc2)cc1OC(=O)c1ccccc1` [Ex. 43, 4-benzoyloxy-5-methoxy-2-(3-oxo-3-phenyl-1-propenyl)pyridine], for which the inhibition at 0.01 µM came out at 35.5%.
Regarding `CCOC(=O)COc1cc(/C=C/C(=O)c2ccccc2)ncc1OC` [Ex. 45], the inhibition at 0.01 µM amounted to 74%.
For the molecule `CCCCOc1cc(/C=C/C(=O)c2ccccc2)ncc1OC` [Ex. 46, 4-Butoxy-5-methoxy-2-(3-oxo-3-phenyl-1-propenyl)pyridine], the inhibition at 0.01 µM worked out at 11.8%.
The same measure, in the same setting: the result for `COc1cnc(/C=C/C(=O)c2ccccc2)cc1OCC(=O)c1ccccc1` [Ex. 47, 5-Methoxy-4-(2-oxo-2-phenylethoxy)-2-(3-oxo-3-phenyl-1-propenyl)pyridine] reads 58.9%.

Values taken from US6046218A, “Pyridine derivative and medicament containing the same as an effective ingredient” (SS Pharmaceutical Co., Ltd., priority 1996, dated 2000).
